The values that follow come from patent US4075332A (priority 1976, dated 1978).

Where two headings read alike, the source gives them in different places.

Series [1] concerns bean rust fungus (Uromyces Phaseoli). The experiment in a line: Bean Rust eradicant test. The series is classed as in vivo. As to conditions: Table III; 200 ppm. On the procedure: In these tests, the experimental compounds were tested in aqueous emulsions, prepared in the same manner as was previously described above with respect to the insecticidal and miticidal tests.
Pinto bean plants with fully expanded primary leaves were inoculated with spores of the bean rust fungus (Uromyces Phaseoli) and incubated for 24 hours. The test were then carried out as described above for Bean Powdery Mildew.

The test system of series [2] is powdery mildew fungus (Erysiphe Polygoni). The experiment in a line: Bean Powdery Mildew eradicant test. It counts as in vivo. As to conditions: Table III; 200 ppm.
Series [3] concerns bean rust fungus (Uromyces Phaseoli). As to the kind of experiment: Bean Rust systemic eradicant test. It counts as in vivo. Particulars: Table III; 200 ppm. The procedure:
Pinto bean plants were inoculated 24 hours prior to use as above and the soil in the pot was then treated with 20 ml. of an emulsion of the test chemical. The rest of the test and the evaluation were then carried out an above for Bean Powdery Mildew.

Series [4] deals with Corn rootworm larvae. As to conditions: in vivo, 120 h.
The test system of series [5] is Root-knot nematode. As to conditions: in vivo.
For series [6], the system named is Sclerotium. The experiment in a line: Sclerotium soil fungicide test. It counts as in vivo. As to conditions: Table III; 100 lb/acre. The procedure: Sterilized soil was inoculated with Solerotium and placed into a 4-ounce "Dixie cup", and drenched with 20 ml. of an emulsion of the test chemical. The cup was then incubated for 2 days at 70° F. Thereafter, the amount of mycelial growth on the soil surface was rated and the control by the chemical estimated accordingly.

Series [7] concerns Southern army worm. Particulars: in vivo.
The test system of series [8] is Bean aphids. Particulars: bean aphid, in vivo, 48 h.
In series [9] the test system is Spider mites. Particulars: in vivo, 48 h.
For series [10], the system named is Spider mites. As to the kind of experiment: whole plant or invertebrate. Particulars: Tetranychus urticae; for mortality at 10 ppm: read-out: Spider Mites Mortality,%.
For series [11], the system named is Bean aphids. As to the kind of experiment: Aphid, Systemic. Particulars: Aphis fabae, 48 h, read-out: Mortality, % - Bean Aphids Systemic. It counts as in vivo, bean aphid. The procedure:
(§1) In the insecticidal and miticidal tests, the experimental compounds were tested as aqueous emulsions. These emulsions were prepared by dissolving the compound in acetone and dispersing it in distilled water with Triton X-100, an alkylaryl polyether alcohol derived by the reaction of i-octylphenol with ethylene oxide, to give spray emulsions containing the desired concentrations of the compound. These emulsions were then used in standard laboratory tests described below.
Aphid, Systemic: Nasturtium plants infested with the bean aphid were treated by applying 20 ml. of the formulated test chemical to the soil. The degree of aphid control was rated after 2 days.

Series [12] relates to Secondary Screw Worms. The experiment in a line: Animal systemic insecticide test in guinea pigs, secondary screw worm larvae. It counts as in vivo, secondary screw worm (host: guinea pig). Particulars: Cavia porcellus, 24 h, Table XI, read-out: Lowest Dosage (mg/kg) Causing Complete Kill of Larvae of Secondary Screw Worms. On the procedure: (§2) The experimental compounds, formulated as 5% solutions in Tween 20, were administered orally and subcutaneously to guonea pigs which have been artificially infested with nymphs of the lone star tick at 48 hours before treatment, larvae of the secondary screw worm and of the black blow fly at 24 hours before treatment. Mortality was observed 24 hours after the treatment. For the details of the techniques, reference is made to the publications of R. O. Drummond in the Journal of Economic Entomology, particularly in Vol. 60, pages 733-737 in 1967.

The test system of series [13] is Southern army worm. As to the kind of experiment: whole plant or invertebrate. Particulars: Spodoptera eridania, read-out: Mortality, % - Southern ArmyWorm.
The test system of series [14] is Bean aphids. As to the kind of experiment: whole plant or invertebrate. Particulars: Aphis fabae, 48 h.
Series [15] relates to Black Blow Flies. The experiment in a line: Animal systemic insecticide test in guinea pigs, black blow fly larvae. As to conditions: Calliphoridae, in Cavia porcellus, 24 h, Table XI, read-out: Lowest Dosage (mg/kg) Causing Complete Kill of Larvae of Black Blow Flies. It counts as in vivo, black blow fly (host: guinea pig). On the procedure: as §2
Series [16] relates to Mexican bean beetle. As to the kind of experiment: whole plant or invertebrate. Particulars: Epilachna varivestis.
Series [17] in a line: in vivo. Particulars: rat, po.
In series [18] the test system is Lone Star Ticks. The experiment in a line: Animal systemic insecticide test in guinea pigs, lone star tick nymphs. It counts as in vivo, lone star tick (host: guinea pig). Particulars: Cavia porcellus, 24 h, Table XI, read-out: Lowest Dosage (mg/kg) Causing Complete Kill of Nymphs of Lone Star Ticks. The procedure:
as §2

Series [19] concerns House fly. The experiment in a line: whole plant or invertebrate. As to conditions: Musca domestica, 48 h.
Series [20] deals with Spider mites. The experiment in a line: Mite, Systemic. The series is classed as in vivo, two-spotted mite. As to conditions: Tetranychus urticae, read-out: Mortality, % - Spider Mites Systemic. On the procedure:
as §1
Mite, Systemic: Bean plants infested with the two-spotted mites were treated by applying 20 ml. of the formulated test chemical to the soil.

Series [21] has as its system Corn earworm. As to the kind of experiment: Field control of corn earworm (Example 27). The series is classed as in vivo. Particulars: Table XV; 1 lbs/acre; untreated check 45. The text has this:
Spring Gold sween corn was planted on March 21. Each treatment was made on a 48 ft. row and was replicated three times. Ratings represent the total counts from all three replicates. Except for insecticide treatment the plots were managed according to recommended farming practice for the area. Application of the experimental compositions at the 1 lb. active ingredient per acre were made and readings were made to determine the number of infested corn ears.

For series [22], the system named is Corn rootworm larvae. As to the kind of experiment: whole plant or invertebrate. As to conditions: soil, 120 h.
Series [23] deals with insects, mites and nematodes. As to the kind of experiment: Overall pesticidal activity in the greenhouse and laboratory tests (in words). The series is classed as in vivo. On the procedure:
In Examples 14-29 which follow, the new dithiophosphate compositions of the present invention were tested in the greenhouse and in the laboratory to determine their biological activity. Structurally related, known compounds, usually leading cmmercial compounds, were also tested side-by-side to determine the relative pesticidal effectiveness of the new compounds.
as §1

The test system of series [24] is Mexican bean beetle. As to conditions: in vivo.
In series [25] the test system is warm blooded animals. The experiment in a line: Toxicity towards warm blooded animals (in words). It counts as in vivo. As to conditions: summary statements. The procedure: Each compound tested was administered orally by stomach tube to five to eight groups of five male albino rate of the Sprague Dawley strain, weighing 220 to 300 grams at various dosage levels. Following incubation, the animals were closely observed for mortality and toxic effects at intervals for 14 days. Statistical analysis of the mortality data was carried out to determine the median lethal dosages (LD50) according to the method of W. R. Thompson as described in the Journal Bact. Rev. in Vol. 11, pages 115-145 in 1947, utilizng the tables of H. J. Horn published in the Journal Biometrics, Vol. 12, page 311 in 1956. The LD50 dosages are expressed in mg weights of test material per kg weight of rat used.

Series [26] deals with Lepidoptera. As to the kind of experiment: Activity against Lepidoptera / pest spectrum (in words). The series is classed as in vivo.
Setting [27] is: read-out: Bean Aphids Mortality,%.
Setting [28] is: read-out: Mexican Bean Beetles Mortality,%.
Where [29] appears, read: read-out: Corn Rootworm Mortality,%.

Take `CCOP(=O)(SCC)SCC(C)SCC` (centres unmarked) [Example 29, O,S-Diethyl S'-2-Ethylthiopropyl Dithiophosphate]: the “Control of Foliar Fungi, % - Bean Rust Eradicant” value in series [1] worked out at 0%. For the same molecule, the “Control of Foliar Fungi, % - Bean Mildew Eradicant” value in series [2] came out at 0%. Moreover, the “Control of Foliar Fungi, % - Bean Rust Systemic Eradicant” value in [3] came out at 0%. Besides, the “Pest Control, % - Corn Rootworm (0.25 ppm)” value in series [4] was 20%. Moreover, the “Pest Control, % - Nematode Control (25 lb/acre)” value in series [5] is reported as 20%. Besides, the “Control of Sclerotium, %” value in [6] is 0%.

As to `CCCSP(=O)(OCC)SCCSC` (centres unmarked) [Example 1, O-Ethyl S-1-Propyl S'-2-Methylthioethyl Dithiophosphate], the “Mortality, % - Southern ArmyWorm” value in series [7] is listed as 100%. In addition, the “Mortality, % - Bean Aphids Contact” value in [8] is given as 100%. Further, the “Mortality, % - Spider Mites Contact” value in series [9] (two-spotted spider mite) turned out to be 100%. For the same molecule, the mortality at 250 ppm stood at 100% in series [10] (48 h, read-out: Mortality, % - Spider Mites Contact); 95% in series [11]; 100% in series [13]; 100% in series [14] (read-out: Mortality, % - Bean Aphids Contact); 100% in [16] (read-out: Mortality, % - Mexican Bean Beetle); 100% in [16] (read-out: Mortality, % - Mexican Bean Beetles). Moreover, the mortality at 250 ppm in [19] (read-out: Mortality, % - House Flies) was 100%; in [20] it was 100%. Further, the minimal effective dose worked out at 50 mg/kg in [12] (oral); 50 mg/kg in series [12] (sc, subcutaneous); 50 mg/kg in series [15] (oral); 50 mg/kg in series [15] (sc, subcutaneous); 50 mg/kg in series [18] (oral); 50 mg/kg in series [18] (sc, subcutaneous). This molecule yielded an LD50 at 336 h in series [17] of 46 mg/kg. Further, the “Nematode Control,% at 25 lb/acre” value in series [5] is listed as 90%.

As to `CCCSP(=O)(OCC)SCCSC` (centres unmarked) [drawing 55], the “Number of Infested Corn Ears (150 Ears Sampled)” value in series [21] came to 2.

Regarding `CCCSP(=O)(OCC)SCC(SC)C(C)(C)C` (centres unmarked) [Example 39, O-Ethyl S-1-Propyl S'-2-Methylthio-3,3-Dimethylbutyl Dithiophosphate], the “Mortality Produced at 50 ppm, % - Southern Army Worm” value in series [7] (southern armyworm) was determined as 0%. Further, the mortality at 50 ppm was found to be 100% in series [10] (read-out: Mortality Produced at 50 ppm, % - Spider Mites); 30% in series [14] (read-out: Mortality Produced at 50 ppm, % - Bean Aphids); 0% in series [16] (read-out: Mortality Produced at 50 ppm, % - Mexican Bean Beetles); 20% in [19] (read-out: Mortality Produced at 50 ppm, % - Houseflies). The mortality at 2.5 ppm in series [22] (read-out: Corn Rootworm Mortality, % at 2.5 ppm) came to 80%. Moreover, the “insecticidal activity at 50 ppm (in words)” value in series [23] (50 ppm) is “very little insecticidal activity”.

For `CCCSP(=O)(OCC)SCC(C)SCC` (centres unmarked) [Example 33, O-Ethyl S-1-Propyl S'-2-Ethylthiopropyl Dithiophosphate], the “S.Armyworm Mortality,%” value in series [7] amounted to 100%. Besides, the “Pest Control, % - Bean Aphids Contact” value in series [8] worked out at 100%. Moreover, the “Pest Control, % - Mex. Bean Beetle” value in series [24] was 100%. The “Pest Control, % - Spider Mites Contact” value in series [9] (spider mite) was determined as 100%. For the same molecule, the mortality at 10 ppm in series [10] came out at 100%. Moreover, the figures for the mortality at 50 ppm in series [14] (setting [27]) and in series [16] (setting [28]) were 100% and 70%, respectively. The “Control of Foliar Fungi, % - Bean Rust Eradicant” value in [1] was found to be 80%. Besides, in [2], the “Control of Foliar Fungi, % - Bean Mildew Eradicant” value turned out to be 70%. Moreover, the “Control of Foliar Fungi, % - Bean Rust Systemic Eradicant” value in [3] was found to be 90%. This molecule also showed a 50% lethal dose (LD50) at 336 h in series [17] of 214 mg/kg. Further, in series [4], the “Pest Control, % - Corn Rootworm (0.25 ppm)” value was found to be 100%. In addition, the “Nematode Control,%” value in series [5] is on record as 100%. For the same molecule, the “Pest Control, % - Nematode Control (25 lb/acre)” value in [5] is given as 100%. Further, the mortality at 2.5 ppm in series [22] (setting [29]) came out at 100%. In addition, the “Control of Sclerotium, %” value in series [6] amounted to 60%.

Regarding `CCCCCCSC(C)CSP(=O)(OCC)SCCC` (centres unmarked) [Example 36, O-Ethyl S-1-Propyl S'-2-n-Hexylthiopropyl Dithiophosphate], the “S.Armyworm Mortality,%” value in [7] is on record as 100%. Further, the mortality at 10 ppm in series [10] amounted to 90%. The mortality at 50 ppm came to 50% in series [14] (setting [27]) and 100% in series [16] (setting [28]). For the same molecule, in series [5], the “Nematode Control,%” value was 10%. The mortality at 2.5 ppm in series [22] (setting [29]) was found to be 0%. The “pesticidal activity (in words)” value in [23] (summary statements) is reported as “decreased level of activity”.

On to `CCCSC(C)CSP(=O)(OCC)SCCC` (centres unmarked) [Example 34, O-Ethyl S-1-Propyl S'-2-n-Propylthiopropyl Dithiophosphate], for which the “S.Armyworm Mortality,%” value in [7] is 100%. In addition, in series [10], the mortality at 10 ppm was 100%. Also, the mortality at 50 ppm in [14] (setting [27]) and in [16] (setting [28]) was 100% in each case. Besides, the “toxicity (in words)” value in series [25] was “particularly low toxicity”. In series [17], this molecule yielded an LD50 at 336 h of 422 mg/kg. The “Nematode Control,%” value in series [5] is on record as 100%. The mortality at 2.5 ppm in series [22] (setting [29]) turned out to be 100%.

`CCCSP(=O)(OCC)SCC(C)SC(C)=O` (centres unmarked) [Example 13, O:ETHYL S-1-PROPYL S-2-ACETYLTHIOPROPYL DITHIOPHOSPHATE]: the “pesticidal spectrum / activity against Lepidoptera” value in series [26] was “shows the broad pesticidal spectrum and the specific activity against Lepidoptera”.

As usually defined, the mortality is the share of the test organisms that died. The LD50 is the dose at which mortality reaches 50%.
